Series [1] concerns DP BB rats (Diabetes-Prone BioBreeding rats). To be noted: rat, in vivo, sc.
Method: (§1) The efficacy of formulation 3, described in example 1, in the treatment of the retinal vascular alterations associated with diabetes, was evaluated using as experimental model DP BB rats (Diabetes-Prone BioBreeding rats, M&B Bomholtvej, Denmark), analyzing the retinal function of the treated animals by electroretinography (ERG) and the state of vascularization of the retina by quantitative immunohistochemical techniques.
(§2) 60 3-week old DP BB rats of both sexes (30 male and 30 female) were used. […] The animals were observed from the 3rd to 30th weeks of life, monitoring various parameters, including weight, blood glucose, urine glucose and blood insulin. In particular, the onset of diabetes was evaluated by measuring blood glucose with the One-Touch profile (LifeScan, Milpitas, Calif.) twice a week, and every day from the 13th week; urine glucose with Clinistix (Bayer Diagnostica, Basingstoke, United Kingdom), twice a week; insulin levels twice a week, with an RIA Kit (BioRad, Milan, Italy). […]
(§3) The retinal functionality of the animals in each group was evaluated by ERG before euthanasia and removal of the retinas for quantitative histochemical analysis.
(§4) Retinal functionality was evaluated by ERG, using a scotopic full-field ERG. […] The wave amplitude was measured at a fixed time of 8 ms from the stimulus, to minimise non-photoreceptor contamination. […]
Series [2] relates to SD-STZ rats (Sprague-Dawley rats rendered diabetic with streptozotocin). To be noted: rat, in vivo.
Method: (§5) The severity of the diabetic state was evaluated by daily monitoring of body weight, clinical signs and blood glucose levels.
(§6) The dose of STZ was prepared at the time of use by dissolving the compound in 0.05M citrate buffer, pH 4.5. For the STZ administration, the animals were placed in the dorsal position and the injection site was disinfected and buffered with an iodine-povidone solution; the i.p. injection was performed in the caudal abdominal cavity of the rats, using a sterile 25 g needle. The severity of the diabetes caused by administration of STZ was monitored daily, evaluating blood glucose levels with the One-Touch profile (LifeScan, Milpitas, Calif.), every day; urine glucose with Clinistix (Bayer Diagnostica, Basingstoke, United Kingdom), twice a week; insulin levels, twice a week, with an RIA Kit (BioRad, Milan, Italy).
(§7) 5) subcutaneously twice a day. The retinal functionality of the animals in each group was evaluated by ERG before euthanasia and removal of the retinas for quantitative histochemical analysis.
(§8) Retinal function was evaluated by ERG, as reported in detail in example 2.
(§9) The study design involved 5 groups of 10 rats, 5 male and 5 female. […]
Series [3] relates to DP BB rats (Diabetes-Prone BioBreeding rats). Kind of series: CD31 immunohistochemistry and quantitative analysis of neovascular tuft formations in retinas of DP BB rats. It counts as in vivo, rat. To be noted: daily s.c., peptide groups E, F, insulin alone group C, peptide+insulin group D. How it is done: The state of vascularization of the retina of the treated animals was studied on the whole retinas, using antibodies directed against CD31 (BD Biosciences, San Diego, Calif., USA), an important marker for the endothelial cells. The immunohistochemical tests on the retinas and quantitative analysis of the neovascular tuft formations, vascular and avascular areas, were conducted as reported in the literature (Exp Eye Res. 2013; 111:27-35; Invest Ophthalmol Vis Sci. 2012; 53:2181-2192; J Neurochem. 2011; 119:1317-1329; Invest Ophthalmol Vis Sci. 2006; 47:2125-2134). […]
The retinal vascularization images were acquired with an epifluorescence microscope (Eclipse E800; Nikon Corp., Amsterdam, Netherlands) using a digital camera converter (SD-Filc camera; Nikon Corp.). The electronic images were processed with image-processing software (Adobe Photoshop; Adobe Systems, Inc., Mountain View, Calif., USA) to allow quantitative analysis of the results. For each experimental condition, the quantitative data originated from 20 retinas of 10 different rats.
Table 3—Immunohistochemical tests on retinas and quantitative analysis of neovascular tuft formations. […] The electronic images were processed with image-processing software (Adobe Photoshop; Adobe Systems, Inc., Mountain View, Calif., USA) to allow quantitative analysis of the results. […]

The test system of series [4] is SD-STZ rats (Sprague-Dawley rats rendered diabetic with streptozotocin). As to the kind of experiment: Immunohistochemistry and quantitative analysis of neovascular tuft formations in retinas of SD-STZ rats. It is filed as in vivo, rat. To be noted: daily administration, peptide groups C and E, insulin alone group D. An excerpt:
5) subcutaneously twice a day.
For each experimental condition, the quantitative data originated from 20 retinas of 10 different rats.
Table 5—Immunohistochemical tests on retinas and quantitative analysis of neovascular tuft formations. The state of vascularization of the retina of the treated animals was studied as reported in example 2. For each experimental condition, the quantitative data originated from 20 retinas of 10 different rats. […] The areas of neovascularization are expressed as the ratio between the area of neovascularization present in the animals which are not yet diabetic (Group A≈0.1% of the retinal area) and that of the group. […] 5) subcutaneously twice a day.

The test system is the same in series [5]. As to the kind of experiment: Retinal function by ERG (SOPs) in rats rendered diabetic with streptozotocin. To be noted: daily administration, peptide groups C and E, insulin alone printed as groups B and D.
Method: as §5, §6, §7, §8, §9
Series [6] deals with DP BB rats (Diabetes-Prone BioBreeding rats). As to the kind of experiment: Retinal function by scotopic full-field ERG (SOPs) in diabetes-prone BioBreeding rats. To be noted: daily s.c., peptide groups E, F, insulin alone group C, peptide+insulin group D.
Method: as §1, §2, §3, §4

From patent publication US20180326014A1, “PHARMACEUTICAL FORMULATIONS FOR THE TREATMENT OF DIABETES” (KALEYDE PHARMACEUTICALS AG, priority 2016, published 2018) come the findings set out here.

Where two headings read alike, the source gives them in different places. Where a SMILES comes first, the peptide text is derived from it. [ ]: non-standard residue; d: D form. ξ: configuration not given here. ξαMeF = CC(N)(Cc1ccccc1)C(=O)O; Aib = CC(C)(N)C(=O)O

For `CC(=O)N[C@@H](CCCNC(=N)N)C(=O)NC(C)(C)C(=O)N[C@@H](CCCNC(=N)N)C(=O)NC(C)(Cc1ccccc1)C(N)=O` (stereo partly drawn) [Ac-Arg-Aib-Arg-α(Me)Phe-NH2] (Ac-R[Aib]R[ξαMeF]-NH2), the “effect on retinal vascular damage / eyesight, in words (Table 2)” value in series [1] is given as “prevent the formation of retinal vascular damage”.
Regarding `CC(=O)NC(C)(C)C(=O)N[C@@H](CCCNC(=N)N)C(=O)NC(C)(C)C(=O)N[C@@H](CCCNC(=N)N)C(=O)NC(C)(Cc1ccccc1)C(N)=O` (stereo partly drawn) [Ac-Aib-Arg-Aib-Arg-α(Me)Phe-NH2] (Ac-[Aib]R[Aib]R[ξαMeF]-NH2), in series [2], the “effect on retinal vascular damage, in words (Table 4)” value is on record as “prevent ab initio the formation of retinal vascular damage”.
As for insulin, the “effect on retinal vascular damage / NTA, in words (Table 3)” value in series [3] is on record as “causes a major increase in NTA”. In addition, in series [4], the “effect on retinal vascular damage / NTA, in words (Table 5)” value is on record as “leads to a major increase in NTA”. Moreover, in series [5], the “effect on retinal vascular damage, in words (Table 4)” value is “gives rise to major retinal vascular damage”. For the same compound, in series [6], the “effect on retinal vascular damage / eyesight, in words (Table 2)” value was “causes major retinal vascular damage”.
